The test system of assay [1] is HT-29 (colon) cancer cell line. Briefly: MTT cell viability assay, HT-29. Type of assay: cell-based. The note with it: Homo sapiens, HT-29, 48 h, read-out: Cell growth %; for activity at 10 µM: HT-29, 10 µM; for activity at 50 µM: HT-29, 50 µM. An outline of the steps:
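MDA-MB-231, HTB-54 and DU-145 grown in RPMI 1640, HT-29 in McCoy's 5A (10% FBS). Output is % cell growth; IC50 determined; ≥3 experiments in quadruplicate.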
(Tetrazolium assays rely on reduction of a dye to a coloured formazan, in cell work by metabolically active cells.)

The subject of assay [2] is DU-145 cells. As to the kind of experiment: Protective effects against H2O2-induced oxidative stress in DU-145 cells (MTT). Type of assay: cell-based, human. The note with it: for fold increase of cell survival: 0.0015 mg/mL, DU-145 treated with 300, 250 and 200 µM H2O2; for Increase-fold: increase-fold of cell survival. How it is done: Cells were treated with the selected compounds and then oxidative damage to DU-145 cells was induced using different concentrations of H2O2 (200, 250 and 300 µM), and cell viability was assessed by the MTT method. Briefly, 2.5 × 10^4 DU-145 cells per well were added in 96-well plates. After 24 h of incubation, DMSO, 1.I, 2.I, 5.I, 7.II, 10.II, and ascorbic acid were added to each well at two different concentrations (0.0015 mg/mL and 0.0003 mg/mL) and incubated for 1 h. After that, H2O2 was added at the concentrations of 200, 250, and 300 µM, and the cells were incubated for 12 h to induce cell damage. MTT assay was used to measure cell viability. For each treatment, the mean cell viability was calculated from three independent experiments. The DMSO-treated controls were assigned with a cell viability value of 100% (Vcontrol). The results are expressed as a cell growth inhibition % caused by H2O2 and the increased fold of cell survival, as follows: • Cells without compounds, only treated with H2O2: (2) % Cell growth inhibition=Acontrol - Asample/Acontrol × 100
• Cells treated with compounds and H2O2:
(3) % Cell growth inhibition=Asample (compound) - Asample (compound+H2O2)/Acontrol × 100
(4) Increase-fold of cell survival=% cell growth inhibition (H2O2)/% cell growth inhibition (compound+ H2O2)
The standard error of the mean (SEM) was calculated in at least three independent experiments performed in quadruplicates.

Assay [3] concerns DU-145 cells. As to the kind of experiment: Total ROS measurement (Muse Oxidative Stress Kit). Type of assay: cell-based, human. Particulars: DU-145, 16 h; 1.I and 5.I 10 µM, H2O2 0.9 µM. The protocol: Total ROS levels were measured in DU-145 cells treated with 1.I and 5.I using the Muse Oxidative Stress Kit (EMD Millipore, Billerica, MA, USA) according to the manufacturer’s protocol. This kit uses Muse oxidative stress reagent to detect ROS inside cells. This kit identifies two different cell populations: ROS(−) cells and ROS(+) cells. In the graph, the ROS(−) population is represented by the M1 peak and the ROS(+) cells by the M2 peak. DU-145 cells treated with H2O2 (0.9 µM) were used as positive controls to identify M1 and M2 peaks. Percentages of ROS(−) and ROS(+) cells were measured using the Muse Cell Analyzer.

Setting [4] is: compound 0.0003 mg/mL, 200 µM H2O2, DU-145.
[5] abbreviates: compound 0.0003 mg/mL, 250 µM H2O2, DU-145.
The mark [6] stands for this setting: compound 0.0003 mg/mL, 300 µM H2O2, DU-145.
[7] abbreviates: compound 0.0015 mg/mL, 200 µM H2O2, DU-145.
The mark [8] stands for this setting: compound 0.0015 mg/mL, 250 µM H2O2, DU-145.
Where [9] appears, read: compound 0.0015 mg/mL, 300 µM H2O2, DU-145.

Experimental findings from publication PMC10376326, “Novel Acylselenourea Derivatives: Dual Molecules with Anticancer and Radical Scavenging Activity” (Antioxidants, 2023) are described below.

Structures are written as SMILES. Entries after “also recorded” stand apart in the source; their conditions may differ.

As to `CCCNC(=[Se])NC(=O)c1ccco1` [Compound 1.I, N-(propylcarbamoselenoyl)furan-2-carboxamide], the activity at 10 µM in assay [1] was found to be 44.2 ± 7.1%. The activity at 50 µM in assay [1] is 25.5 ± 4.2%. In addition, the “fold increase of cell survival” value with DU-145 cells [2] is “doubled cell viability; also recorded: greater two-fold increase of cell survival”. The Increase-fold in the assay on DU-145 cells [2] (setting [4]) is reported as 2.0 ± 0.0; in the assay on DU-145 cells [2] (setting [5]) it was 2.0 ± 0.7; with DU-145 cells [2] (setting [6]), 1.8 ± 0.4; in the assay on DU-145 cells [2] (setting [7]), 2.3 ± 0.7; in the assay on DU-145 cells [2] (setting [8]) it was 2.7 ± 0.4; with DU-145 cells [2] (setting [9]), 2.3 ± 0.3.

For the compound `CCCNC(=[Se])NC(=O)c1ccccc1` [Compound 5.I, N-(propylcarbamoselenoyl)benzamide], in the assay with DU-145 cells [3], the “ROS PROFILE M2 (ROS(+) cells)” value was around 13%. Besides, the activity at 10 µM in assay [1] came out at 39.6 ± 14.3%. For the same compound, the activity at 50 µM in assay [1] turned out to be 21.4 ± 1.5%. For the same compound, the “fold increase of cell survival” value in the assay with DU-145 cells [2] is reported as “doubled cell viability; also recorded: greater two-fold increase of cell survival”. Moreover, the Increase-fold in the assay with DU-145 cells [2] (setting [4]) was found to be 1.9 ± 0.3; with DU-145 cells [2] (setting [5]) it was 1.9 ± 0.4; in the assay on DU-145 cells [2] (setting [6]) it was 1.7 ± 0.4; with DU-145 cells [2] (setting [7]), 3.1 ± 0.5; in the assay on DU-145 cells [2] (setting [8]), 2.7 ± 0.3; with DU-145 cells [2] (setting [9]), 2.4 ± 0.4.
